Reference: patent US20140309296A1, “BUDIODARONE FORMULATIONS” (Armetheon, Inc., priority 2013, published 2014)
Where a name gives a salt, the structure may show the parent alone. Blank lines part the entries; values can stand above or below the compound they belong to.

Legend:
[1] = tested on: sodium, potassium, and calcium ion channels; settings: in vivo; cited from earlier work
[2] = Budiodarone concentration attainable in hyperconcentrated solutions (Examples 16-18); type: physicochemical
Description: The benzyl alcohol/budiodarone tartrate solution is viscous and therefore direct measurement of the budiodarone concentration is difficult. A better way to measure budiodarone concentration in the solution of benzyl alcohol and budiodarone oil or in a hyperconcentrated solution is by using an indirect method. In this example, the volume of the benzyl alcohol/budiodarone mixture was measured, which in turn allowed for the calculation of an accurate budiodarone concentration.
In each of five vials of accurately known volume, budiodarone tartrate (250 mg) and benzyl alcohol (91 μl) were mixed in order to make a 3/1 mixture (mol/mol). Then the solution was mixed thoroughly in order to make a clear solution. This was aided with the help of warming to 50° C. for 3 minutes in order to reduce the viscosity of the mixture. The weight of the vial containing the 3:1 mixture of benzyl alcohol/budiodarone was then recorded. Vial number 1 was filled with silicon oil of density d=0.964 and weighed again. The difference in weight provided the weight of the silicon oil added. This, divided by the density of the silicon oil provided the volume of silicon oil necessary to fill the vial. The difference with the known volume of the vial represents the volume of the benzyl alcohol/budiodarone mixture. To Vial numbers 2, 3, 4, and 5 was added 50, 100, 200, and 400 μl of water, respectively. The contents of the vials were then thoroughly mixed in order to get hyperconcentrated solutions of different volumes and different budiodarone concentrations. The volumes of these hyperconcentrations using silicon oil were measured as described above.
The same experiment as Example 16 was replicated, using mixtures of 5/1 ratio (250 mg of budiodarone tartrate and 152 μl of benzyl alcohol) and various volumes of water added. Using the same procedure as Example 16, a maximum calculated budiodarone concentration of 737 mg/ml and a maximum benzyl alcohol concentration of 45% (v/v) were found.
Similarly, the experiment in Example 16 was replicated, using a 1/1 mixture (250 mg of budiodarone tartrate and 30 μl of benzyl alcohol). A maximum calculated budiodarone concentration of 1,136 mg/ml and a maximum benzyl alcohol concentration of 13.6% (v/v) were found.

[3] = 30 ml of 0.9% benzyl alcohol in saline, estimated from animal studies; cited from earlier work
[4] = Solubility of budiodarone tartrate in water (Example 2); type: physicochemical
Description: The aqueous solubility of budiodarone tartrate was measured in pure distilled water. Budiodarone tartrate (250 mg) was suspended in distilled water (10 ml) and the suspension was vortexed on a VWR Genie 2 vortexer at maximum speed for 3×10 sec duration. The suspension was then stirred for 96 hours at room temperature, protected from light. After 96 hours, the suspension was vortexed again and a 1 ml aliquot was centrifuged at 13,000 rpm for 10 minutes to precipitate all insoluble material. A 40 μl aliquot of the clear supernatant was diluted with 960 μl of methanol (25-fold dilution) and was analyzed by HPLC using Conditions 3.
The amount of budiodarone in solution is found to be 7.04 mg/ml. This figure is the solubility of budiodarone tartrate in water.

SMILES: CCN(CC)CCOc1c(I)cc(C(=O)c2c(CC(=O)O)oc3ccccc23)cc1I [ATI-2000]
- electrophysiological activity of the major metabolite [1]: electrophysiologically inactive

- maximum benzyl alcohol concentration ([2]; 1/1 mixture): 13.6 % (v/v)
- maximum benzyl alcohol concentration ([2]; 3:1 molar ratio of benzyl alcohol/budiodarone): 32.4 % (v/v)
- maximum benzyl alcohol concentration ([2]; 5/1 ratio): 45 % (v/v)
SMILES: OCc1ccccc1 [benzyl alcohol]
- amount estimated to be safe by rapid intravenous infusion [3]: approximately 4.5 mg/kg

SMILES: CC[C@H](C)OC(=O)Cc1oc2ccccc2c1C(=O)c1cc(I)c(OCCN(CC)CC)c(I)c1 [budiodarone tartrate, (1S)-1-methylpropyl 2-(3-{4-[2-(diethylamino)ethoxy]-3,5-diiodobenzoyl}benzofuran-2-yl)acetate, hydrogen (2R,3R)-2,3-dihydroxybutanedioate]
- degradation products in the clear supernatant ([4]; after 96 hours stirring in distilled water at room temperature, HPLC): No significant amount of degradation products were detected
- solubility at 96 h ([4]; distilled water, water, thermodynamic from solid, water, room temperature, read-out: aqueous solubility of budiodarone tartrate): 7040 µg/mL
- aqueous solubility of budiodarone tartrate ([4]; water, room temperature): about 7 mg/ml
